Assay results reported in ChEMBL document CHEMBL3885881, “DrugMatrix”.

Legend:
[1] = species on record: Rattus norvegicus; experiment: DrugMatrix - Regimen: Daily Repeat; type: toxicity, organism-based, Sprague-Dawley; design: regimen Daily Repeat, gender Male, age 6-8 weeks; details: in vivo, po, 1868 mg/kg, route oral GAVAGE, dose level High, vehicle .5 % CMC; for ABSOLUTE BASOPHIL / ABSOLUTE EOSINOPHIL / ABSOLUTE LYMPHOCYTE / ABSOLUTE MONOCYTE / ABSOLUTE SEGMENTED NEUTROPHIL / BASOPHIL / EOSINOPHIL / ERYTHROCYTE COUNT / HEMATOCRIT / HEMOGLOBIN / LEUKOCYTE COUNT / LYMPHOCYTE / MEAN CORPUSCULAR HEMOGLOBIN / MEAN CORPUSCULAR HEMOGLOBIN CONCENTRATION / MEAN CORPUSCULAR VOLUME / MONOCYTE / NEUTROPHIL / NUCLEATED RED BLOOD CELLS / PLATELET COUNT: tissue Blood; for ALANINE AMINOTRANSFERASE / ALBUMIN / ALKALINE PHOSPHATASE / ASPARTATE AMINOTRANSFERASE / BLOOD UREA NITROGEN / CARBON DIOXIDE / CHLORIDE / CHOLESTEROL / CREATININE / GLUCOSE / LACTATE DEHYDROGENASE / LIPASE / PHOSPHORUS / POTASSIUM / SODIUM / TOTAL BILIRUBIN / TOTAL PROTEIN / URIC ACID: tissue Plasma
[2] = species on record: Rattus norvegicus; type: toxicity, organism-based, Sprague-Dawley; details: in vivo, po, 1868 mg/kg, 24 h, route oral GAVAGE, dose level High, time 1 day, vehicle .5 % CMC
Description: DrugMatrix - Regimen: Single

## CC(=O)OCc1ccccc1 [E1501]
[1]; 72 h, time 3 day
  ABSOLUTE BASOPHIL: 0 CELLS/uL
  ABSOLUTE EOSINOPHIL: 53 CELLS/uL
  ABSOLUTE LYMPHOCYTE: 16547 CELLS/uL
  ABSOLUTE MONOCYTE: 404 CELLS/uL
  ABSOLUTE SEGMENTED NEUTROPHIL: 3196 CELLS/uL
  BASOPHIL: 0%
  EOSINOPHIL: 0.5%
  ERYTHROCYTE COUNT: 6.19 x10E6/uL
  HEMATOCRIT: 37.45%
  HEMOGLOBIN: 13.25 G/DL
  LEUKOCYTE COUNT: 20.2 x10E3/uL
  LYMPHOCYTE: 75.5%
  MEAN CORPUSCULAR HEMOGLOBIN: 21.45 pg
  MEAN CORPUSCULAR HEMOGLOBIN CONCENTRATION: 35.4 G/DL
  MEAN CORPUSCULAR VOLUME: 60.6 fL
  MONOCYTE: 2%
  NEUTROPHIL: 22%
  NUCLEATED RED BLOOD CELLS: 0 /100WBC
  PLATELET COUNT: 1224 x10E3/uL
  ALANINE AMINOTRANSFERASE: 60 u/L
  ALBUMIN: 4.7 G/DL
  ALKALINE PHOSPHATASE: 462 u/L
  ASPARTATE AMINOTRANSFERASE: 177 u/L
  BLOOD UREA NITROGEN: 54 mg/dL
  CARBON DIOXIDE: 24 mmol/L
  CHLORIDE: 92.5 MEQ/L
  CHOLESTEROL: 57 mg/dL
  CREATININE: 0.49 mg/dL
  GLUCOSE: 276 mg/dL
  LACTATE DEHYDROGENASE: 270.5 u/L
  LIPASE: 9.5 u/L
  PHOSPHORUS: 16.1 mg/dL
  POTASSIUM: 5.06 MEQ/L
  SODIUM: 143.6 MEQ/L
  TOTAL BILIRUBIN: 0.25 mg/dL
  TOTAL PROTEIN: 7 G/DL
  URIC ACID: 2 mg/dL
[1]; 120 h, time 5 day
  ABSOLUTE BASOPHIL: 0 CELLS/uL
  ABSOLUTE EOSINOPHIL: 243.33 CELLS/uL
  ABSOLUTE LYMPHOCYTE: 9225.33 CELLS/uL
  ABSOLUTE MONOCYTE: 248.33 CELLS/uL
  ABSOLUTE SEGMENTED NEUTROPHIL: 783 CELLS/uL
  BASOPHIL: 0%
  EOSINOPHIL: 2.33%
  ERYTHROCYTE COUNT: 6.51 x10E6/uL
  HEMATOCRIT: 38.67%
  HEMOGLOBIN: 14.03 G/DL
  LEUKOCYTE COUNT: 10.5 x10E3/uL
  LYMPHOCYTE: 88%
  MEAN CORPUSCULAR HEMOGLOBIN: 21.53 pg
  MEAN CORPUSCULAR HEMOGLOBIN CONCENTRATION: 36.3 G/DL
  MEAN CORPUSCULAR VOLUME: 59.37 fL
  MONOCYTE: 2.33%
  NEUTROPHIL: 7.33%
  NUCLEATED RED BLOOD CELLS: 0 /100WBC
  PLATELET COUNT: 934.67 x10E3/uL
  ALANINE AMINOTRANSFERASE: 127 u/L
  ALBUMIN: 4.53 G/DL
  ALKALINE PHOSPHATASE: 336 u/L
  ASPARTATE AMINOTRANSFERASE: 386 u/L
  BLOOD UREA NITROGEN: 22 mg/dL
  CARBON DIOXIDE: 30 mmol/L
  CHLORIDE: 99.67 MEQ/L
  CHOLESTEROL: 65 mg/dL
  CREATININE: 0.28 mg/dL
  GLUCOSE: 167 mg/dL
  LACTATE DEHYDROGENASE: 574 u/L
  LIPASE: 9.67 u/L
  PHOSPHORUS: 13.07 mg/dL
  POTASSIUM: 6.24 MEQ/L
  SODIUM: 148.47 MEQ/L
  TOTAL BILIRUBIN: 0.17 mg/dL
  URIC ACID: 1.83 mg/dL
[1]; […], time 11 day
  ABSOLUTE BASOPHIL: 0 CELLS/uL
  ABSOLUTE EOSINOPHIL: 0 CELLS/uL
  ABSOLUTE LYMPHOCYTE: 4840 CELLS/uL
  ABSOLUTE MONOCYTE: 440 CELLS/uL
  ABSOLUTE SEGMENTED NEUTROPHIL: 3520 CELLS/uL
  BASOPHIL: 0%
  EOSINOPHIL: 0%
  ERYTHROCYTE COUNT: 6.27 x10E6/uL
  HEMATOCRIT: 37.6%
  HEMOGLOBIN: 13.8 G/DL
  LEUKOCYTE COUNT: 8.8 x10E3/uL
  LYMPHOCYTE: 55%
  MEAN CORPUSCULAR HEMOGLOBIN: 22 pg
  MEAN CORPUSCULAR HEMOGLOBIN CONCENTRATION: 36.7 G/DL
  MEAN CORPUSCULAR VOLUME: 60 fL
  MONOCYTE: 5%
  NEUTROPHIL: 40%
  NUCLEATED RED BLOOD CELLS: 0 /100WBC
  PLATELET COUNT: 822 x10E3/uL
  ALANINE AMINOTRANSFERASE: 128 u/L
  ALBUMIN: 3.9 G/DL
  ALKALINE PHOSPHATASE: 284 u/L
  ASPARTATE AMINOTRANSFERASE: 640 u/L
  BLOOD UREA NITROGEN: 44 mg/dL
  CARBON DIOXIDE: 31 mmol/L
  CHLORIDE: 95 MEQ/L
  CHOLESTEROL: 70 mg/dL
  CREATININE: 0.26 mg/dL
  GLUCOSE: 191 mg/dL
  LACTATE DEHYDROGENASE: 656 u/L
  LIPASE: 9 u/L
  PHOSPHORUS: 14.5 mg/dL
  POTASSIUM: 4.9 MEQ/L
  SODIUM: 146.3 MEQ/L
  TOTAL BILIRUBIN: 0.1 mg/dL
  TOTAL PROTEIN: 5.4 G/DL
  URIC ACID: 1.7 mg/dL
[1]; […], time 14 day
  ABSOLUTE BASOPHIL: 0 CELLS/uL
  ABSOLUTE EOSINOPHIL: 388 CELLS/uL
  ABSOLUTE LYMPHOCYTE: 14397 CELLS/uL
  ABSOLUTE MONOCYTE: 529.5 CELLS/uL
  ABSOLUTE SEGMENTED NEUTROPHIL: 1785.5 CELLS/uL
  BASOPHIL: 0%
  EOSINOPHIL: 2%
  ERYTHROCYTE COUNT: 6.34 x10E6/uL
  HEMATOCRIT: 38%
  HEMOGLOBIN: 13.85 G/DL
  LEUKOCYTE COUNT: 17.1 x10E3/uL
  LYMPHOCYTE: 85%
  MEAN CORPUSCULAR HEMOGLOBIN: 21.9 pg
  MEAN CORPUSCULAR HEMOGLOBIN CONCENTRATION: 36.35 G/DL
  MEAN CORPUSCULAR VOLUME: 60.15 fL
  MONOCYTE: 3.5%
  NEUTROPHIL: 9.5%
  NUCLEATED RED BLOOD CELLS: 0 /100WBC
  PLATELET COUNT: 722 x10E3/uL
  ALANINE AMINOTRANSFERASE: 76.5 u/L
  ALBUMIN: 4.3 G/DL
  ALKALINE PHOSPHATASE: 267 u/L
  ASPARTATE AMINOTRANSFERASE: 238 u/L
  BLOOD UREA NITROGEN: 19 mg/dL
  CARBON DIOXIDE: 21.5 mmol/L
  CHLORIDE: 102.5 MEQ/L
  CHOLESTEROL: 79 mg/dL
  CREATININE: 0.27 mg/dL
  GLUCOSE: 207 mg/dL
  LACTATE DEHYDROGENASE: 251.5 u/L
  LIPASE: 9 u/L
  PHOSPHORUS: 11.95 mg/dL
  POTASSIUM: 5.28 MEQ/L
  SODIUM: 152.2 MEQ/L
  TOTAL BILIRUBIN: 0.25 mg/dL
  TOTAL PROTEIN: 6.5 G/DL
  URIC ACID: 1.95 mg/dL
[2]; tissue Blood
  ABSOLUTE EOSINOPHIL: 109.33 CELLS/uL
  ABSOLUTE LYMPHOCYTE: 12916.67 CELLS/uL
  ABSOLUTE MONOCYTE: 245.33 CELLS/uL
  ABSOLUTE SEGMENTED NEUTROPHIL: 1062 CELLS/uL
  BASOPHIL: 0%
  EOSINOPHIL: 0.67%
  ERYTHROCYTE COUNT: 5.87 x10E6/uL
  HEMATOCRIT: 35.33%
  HEMOGLOBIN: 12.87 G/DL
  LEUKOCYTE COUNT: 14.33 x10E3/uL
  LYMPHOCYTE: 90.67%
  MEAN CORPUSCULAR HEMOGLOBIN: 21.93 pg
  MEAN CORPUSCULAR HEMOGLOBIN CONCENTRATION: 36.4 G/DL
  MEAN CORPUSCULAR VOLUME: 60.27 fL
  MONOCYTE: 1.67%
  NEUTROPHIL: 7%
  NUCLEATED RED BLOOD CELLS: 0 /100WBC
  PLATELET COUNT: 831 x10E3/uL
[2]; tissue Plasma
  ALANINE AMINOTRANSFERASE: 51 u/L
  ALBUMIN: 4.13 G/DL
  ALKALINE PHOSPHATASE: 348.67 u/L
  ASPARTATE AMINOTRANSFERASE: 87 u/L
  BLOOD UREA NITROGEN: 12.33 mg/dL
  CARBON DIOXIDE: 26 mmol/L
  CHLORIDE: 101.67 MEQ/L
  CHOLESTEROL: 53 mg/dL
  CREATININE: 0.24 mg/dL
  GLUCOSE: 189 mg/dL
  LACTATE DEHYDROGENASE: 338.67 u/L
  LIPASE: 10 u/L
  PHOSPHORUS: 14.53 mg/dL
  POTASSIUM: 6.76 MEQ/L
  SODIUM: 145.77 MEQ/L
  TOTAL BILIRUBIN: 0.13 mg/dL
  TOTAL PROTEIN: 6.1 G/DL
  URIC ACID: 2.13 mg/dL
